Laboratory results from patent US8853242B2, “Nitrogenous-ring acylguanidine derivative” (Astellas Pharma Inc., priority 2009, dated 2014).
Counter-ions that a name gives are not always drawn.

Biological target: human 5-HT5A receptor (Homo sapiens (Human), UniProt P47898)
Experiment: Test on a human 5-HT5A receptor binding inhibition ([3H]5-CT)
Conditions: [3H]5-CT binding inhibition, membrane from HEK293 cells expressing human 5-HT5A receptor; Ki calculated from IC50
Description: The ORF (open reading frame; protein coding region) of a human 5-HT5A receptor (Genbank AF498985) was cloned from a human hippocampus cDNA library, and then inserted into a pCR2.1 vector (Invitrogen), and Escherichia coli containing the plasmid was cultured in a large amount. Next, the full-length cDNA sequence of the human 5-HT5A receptor was analyzed, and recombined into a pCDNA3.1 vector (Invitrogen) as an expression vector and cultured in a large amount. HEK293 established cells (ATCC) derived from the human fetal kidney were seeded, the expression plasmid (1 μg) obtained above were added thereto with LIPOFECTAMINE 2000 (Invitrogen; 2 μl), the gene was transfected into HEK293 cells, and the expression cells were screened with a drug-resistant marker, Geneticin (G418 sulfate 500 μg/ml; Kanto Chemical Co., Inc.). Thus prepared recombinant cells which expressed the gene were cultured in a medium containing D-MEM (Dulbecco's modified eagle medium, Sigma), 10% FCS (Fetal calf serum: fetal bovine serum), 1% Pc./Sm (Penicillin/Streptomycin, Invitrogen), and 500 μg/ml G418 for 3 days. These experimental operations followed a manual for gene operation experiment and an instruction appended in a reagent, and the like, such as a known method (Sambrook, J. et al, Molecular Cloning-A Laboratory Manual”, Cold Spring Harabor laboratory, NY, 1989).
HEK293 cells for forced expressions of a human 5-HT5A receptor were cultured in a F500 plate, and scraped with a scraper. After centrifugation, the precipitate was collected, and an incubation buffer (50 mM Tris (HCl) (pH 7.4), 10 mM MgSO4, and 0.5 mM EDTA (ethylenediamine tetraacetic acid)) was added thereto. After homogenization, it was further centrifuged, and the incubation buffer was added to the precipitate, followed by thoroughly suspending. The operation was repeated, and protein concentration was measured, thereby completing preparation of the membrane.
A solution of the compound to be tested and 100 μM 5-CT (5-carboxamidetriptamine) in DMSO was added to a 96-well plate at 2 μl/well, suspended in an incubation buffer, and a membrane from HEK293 cells for forced expressions of a human 5-HT5A receptor prepared at 200 μg/ml was added at 100 μl/well. After incubation at room temperature for 15 minutes, a [^3H]5-CT solution (2 nM [^3H]5-CT, incubation buffer) was added thereto at 100 μl/well.
Separately, 100 μl of the solution was distributed into a liquid scintillation vial, and 2 ml of Aquasol II (registered trademark) was added thereto, followed by stirring. Then, radioactivity was measured by a liquid scintillation counter. It was incubated at 37° C. for 60 minutes. The reaction mixture was sucked into 96-well GF/C filter plate that had been pre-treated with 0.2% polyethyleneimine, and washed six times with an ice-cooled, 50 mM Tris (pH 7.5) buffer. The GF/C filter plate was dried.
Microscint TMPS (registered trademark) was added thereto at 40 μl/well. Radioactivity remaining on the GF/C filter plate was measured by a top counter.
The [^3H]5-CT binding inhibiting activity by the compound to be tested in each experiment was determined as an IC50 value with a radioactivity upon addition of DMSO alone being 0% inhibition, and a radioactivity upon addition of 1 μM 5-CT being 100% inhibition. Separately, Ki values were calculated from the Kd value of the [^3H]5-CT determined from Scatchard analysis, by the following equation. Ki=IC50(1+Concentraion of ligand added/Kd(4.95 nM))

Sequence of human 5-HT5A receptor (P47898 whole entry): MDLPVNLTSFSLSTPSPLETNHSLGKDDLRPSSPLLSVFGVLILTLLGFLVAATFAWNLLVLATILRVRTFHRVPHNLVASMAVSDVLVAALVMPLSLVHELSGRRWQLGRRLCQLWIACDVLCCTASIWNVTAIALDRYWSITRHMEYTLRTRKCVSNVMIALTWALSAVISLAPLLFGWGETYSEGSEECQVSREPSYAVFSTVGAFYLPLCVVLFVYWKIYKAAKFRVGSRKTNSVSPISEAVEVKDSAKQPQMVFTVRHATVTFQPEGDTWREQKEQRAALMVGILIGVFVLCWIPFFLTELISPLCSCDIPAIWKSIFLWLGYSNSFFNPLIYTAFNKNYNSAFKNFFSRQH

| Ki | Compound |
| --- | --- |
| 13 nM | Cc1cc(-c2c(F)cc(F)cc2F)c2cc(C(=O)N=C(N)N)ccc2n1 [Example 6] |
| 1.3 nM | NC(N)=NC(=O)c1ccc2ncc(Cl)c(-c3ccc(F)cc3F)c2c1 [Example 60] |

Same assay, conditions: [3H]5-CT binding, membrane from HEK293 cells expressing human 5-HT5A receptor; Ki calculated from IC50

| Compound | Ki |
| --- | --- |
| NC(N)=NC(=O)c1ccc2ccnc(-c3c(F)cc(F)cc3F)c2c1 [Example 1, N-(diaminomethylene)-1-(2,4,6-trifluorophenyl)isoquinoline-7-carboxamide dihydrochloride] | 1 to 10 nM |
| NC(N)=NC(=O)c1ccc2c(CO)cnc(-c3c(F)cc(F)cc3F)c2c1 [Example 2, N-(diaminomethylene)-4-(hydroxymethyl)-1-(2,4,6-trifluorophenyl)isoquinoline-7-carboxamide fumarate] | 10 to 100 nM |
| CN/C(N)=N/C(=O)c1ccc2nccc(-c3c(F)cc(F)cc3F)c2c1 [Example 3, N-[1-amino(methylamino)methylene]-4-(2,4,6-trifluorophenyl)quinoline-6-carboxamide dihydrochloride] | 1 to 10 nM |
| Cc1cc(-c2c(F)cc(F)cc2F)c2cc(C(=O)N=C(N)N)ccc2n1 [Example 6] | 10 to 100 nM |
| Cc1cnc2ccc(C(=O)N=C(N)N)cc2c1-c1c(F)cc(F)cc1F [Example 17] | 1 to 10 nM |
| Cc1cnc2ccc(C(=O)N=C(N)N)cc2c1-c1c(F)cc(F)cc1Cl [Example 23] | 1 to 10 nM |
| Cc1cnc2ccc(C(=O)N=C(N)N)cc2c1-c1cccc(Cl)c1Cl [Example 24] | 1 to 10 nM |
| NC(=O)c1cc(-c2c(F)cc(F)cc2F)c2cc(C(=O)N=C(N)N)ccc2n1 [Example 30] | 10 to 100 nM |
| Cc1cnc2ccc(C(=O)N=C(N)N)cc2c1-c1c(F)cccc1F [Example 32] | 1 to 10 nM |
| Cc1cc(C(=O)N=C(N)N)cc2c(-c3c(F)cc(F)cc3F)ccnc12 [Example 39] | 1 to 10 nM |
| Cc1cc(C(=O)N=C(N)N)cc2c(-c3c(F)cccc3F)ccnc12 [Example 42] | 1 to 10 nM |
| NC(N)=NC(=O)c1cc(Cl)c2nccc(-c3c(F)cc(F)cc3F)c2c1 [Example 43] | 10 to 100 nM |
| Cc1cc(C(=O)N=C(N)N)cc2c(-c3cccc(Cl)c3Cl)ccnc12 [Example 46] | 1 to 10 nM |
| NC(N)=NC(=O)c1cc(F)c2nccc(-c3c(F)cc(F)cc3F)c2c1 [Example 54] | 10 to 100 nM |
| Cc1cc(C(=O)N=C(N)N)cc2c(-c3c(Cl)cccc3Cl)ccnc12 [Example 55] | 1 to 10 nM |
| COc1cc(F)c(-c2ccnc3c(C)cc(C(=O)N=C(N)N)cc23)c(F)c1 [Example 58] | 1 to 10 nM |

| Compound | Ki |
| --- | --- |
| NC(N)=NC(=O)c1ccc2nccc(C3=CCCCC3)c2c1 [Example 62] | 1 to 10 nM |
| Cc1cc(C(=O)N=C(N)N)cc2c(-c3c(F)cc(F)cc3Cl)ccnc12 [Example 65] | 1 to 10 nM |
| COc1ccc(-c2ccnc3c(C)cc(C(=O)N=C(N)N)cc23)c(Cl)c1 [Example 70] | 1 to 10 nM |
| Cc1cc(C(=O)N=C(N)N)cc2c(C3CC3)ccnc12 [Example 71] | 10 to 100 nM |
| NC(N)=NC(=O)c1ccc2ncc(Cl)c(-c3ccccc3)c2c1 [Example 74] | 1 to 10 nM |
| Cc1cc(C(=O)N=C(N)N)cc2c(C3=CCCC3)ccnc12 [Example 75] | 10 to 100 nM |
| NC(N)=NC(=O)c1ccc2ncc(Cl)c(C3CC3)c2c1 [Example 76] | 10 to 100 nM |
| COc1ccc(F)c(-c2ccnc3c(C)cc(C(=O)N=C(N)N)cc23)c1F [Example 78] | 10 to 100 nM |
| Cc1cc(-c2c(F)cc(F)cc2F)c2cc(C(=O)N=C(N)N)cc(C)c2n1 [Example 83] | 1 to 10 nM |
| Cc1cc(-c2ccc(F)cc2F)c2cc(C(=O)N=C(N)N)cc(C)c2n1 [Example 85] | 1 to 10 nM |
| NC(N)=NC(=O)c1ccc2ncc(C(F)(F)F)c(-c3ccc(F)cc3F)c2c1 [Example 86] | 10 to 100 nM |
| CCc1cc(-c2c(F)cc(F)cc2F)c2cc(C(=O)N=C(N)N)ccc2n1 [Example 87] | 10 to 100 nM |
| Cc1nc2ccc(C(=O)N=C(N)N)cc2c(-c2ccccc2F)c1Cl [Example 89] | 1 to 10 nM |
| NC(N)=NC(=O)c1ccc2nc(C(F)(F)F)cc(-c3c(F)cc(F)cc3F)c2c1 [Example 90] | 10 to 100 nM |
| Cc1cc(-c2ccc(F)cc2Cl)c2cc(C(=O)N=C(N)N)cc(C)c2n1 [Example 91] | 1 to 10 nM |

More lines, now with the values ahead:

| Ki | Compound |
| --- | --- |
| 10 to 100 nM | NC(N)=NC(=O)c1ccc2nccc(-c3ccccc3)c2c1 [Example 4] |
| 1 to 10 nM | NC(N)=NC(=O)c1ccc2nccc(-c3c(F)cc(F)cc3F)c2c1 [Example 5] |
| 10 to 100 nM | Cc1cc(-c2c(F)cccc2Cl)c2cc(C(=O)N=C(N)N)ccc2n1 [Example 7] |
| 1 to 10 nM | NC(N)=NC(=O)c1ccc2nccc(-c3c(F)cc(F)cc3Cl)c2c1 [Example 8] |
| 1 to 10 nM | NC(N)=NC(=O)c1ccc2nccc(-c3c(F)cccc3Cl)c2c1 [Example 11] |
| 100 to 300 nM | N#Cc1ccccc1-c1ccnc2ccc(C(=O)N=C(N)N)cc12 [Example 12] |
| 1 to 10 nM | NC(N)=NC(=O)c1ccc2nccc(-c3c(F)cc(Cl)cc3F)c2c1 [Example 13] |
| 10 to 100 nM | NC(N)=NC(=O)c1ccc2nccc(-c3ccc(Cl)cc3F)c2c1 [Example 14] |
| 1 to 10 nM | NC(N)=NC(=O)c1ccc2nccc(-c3ccc(F)cc3Cl)c2c1 [Example 15] |
| 10 to 100 nM | NC(N)=NC(=O)c1ccc2nccc(-c3cc(Cl)ccc3Cl)c2c1 [Example 18] |
| 1 to 10 nM | NC(N)=NC(=O)c1ccc2nccc(-c3c(Cl)cccc3Cl)c2c1 [Example 19] |
| 10 to 100 nM | NC(N)=NC(=O)c1ccc2nccc(-c3cc(Cl)c(F)cc3F)c2c1 [Example 20] |
| 10 to 100 nM | NC(N)=NC(=O)c1ccc2nccc(-c3cc(Cl)ccc3F)c2c1 [Example 22] |
| 10 to 100 nM | NC(N)=NC(=O)c1ccc2nccc(-c3cc(C(F)(F)F)ccc3F)c2c1 [Example 25] |
| 1 to 10 nM | NC(N)=NC(=O)c1ccc2nccc(-c3c(Cl)cc(Cl)cc3Cl)c2c1 [Example 27] |
| 10 to 100 nM | NC(N)=NC(=O)c1ccc2nccc(-c3cccc(C(F)(F)F)c3F)c2c1 [Example 28] |
| 1 to 10 nM | Cc1cnc2ccc(C(=O)N=C(N)N)cc2c1-c1ccc(F)cc1F [Example 31] |

| Ki | Compound |
| --- | --- |
| 10 to 100 nM | N#Cc1ccc(-c2ccnc3ccc(C(=O)N=C(N)N)cc23)cc1 [Example 33] |
| 10 to 100 nM | COc1cc(C#N)ccc1-c1ccnc2ccc(C(=O)N=C(N)N)cc12 [Example 36] |
| 100 to 300 nM | NC(N)=NC(=O)c1ccc2nccc(-c3ccc(F)c(C(F)(F)F)c3)c2c1 [Example 37] |
| 1 to 10 nM | Cc1cc(C(=O)N=C(N)N)cc2c(-c3ccc(F)cc3F)ccnc12 [Example 44] |
| 10 to 100 nM | Cc1cc(C(=O)N=C(N)N)cc2c(-c3ccc(Cl)cc3Cl)ccnc12 [Example 45] |
| 1 to 10 nM | Cc1cnc2ccc(C(=O)N=C(N)N)cc2c1-c1ccccc1F [Example 51] |
| 10 to 100 nM | NC(N)=NC(=O)c1ccc2nccc(-c3c(F)cncc3F)c2c1 [Example 52] |
| 10 to 100 nM | COc1cc(F)c(-c2ccnc3ccc(C(=O)N=C(N)N)cc23)c(F)c1 [Example 59] |
| 1 to 10 nM | Cc1cnc2ccc(C(=O)N=C(N)N)cc2c1-c1cccc(F)c1Cl [Example 61] |
| 10 to 100 nM | NC(N)=NC(=O)c1ccc2nccc(-c3cc(F)ccc3Cl)c2c1 [Example 63] |
| 10 to 100 nM | Cc1cc(C(=O)N=C(N)N)cc2c(-c3cc(F)ccc3Cl)ccnc12 [Example 64] |
| 1 to 10 nM | Cc1cc(C(=O)N=C(N)N)cc2c(-c3ccc(Cl)cc3F)ccnc12 [Example 67] |
| 10 to 100 nM | Cc1ccc(-c2ccnc3c(C)cc(C(=O)N=C(N)N)cc23)c(F)c1 [Example 68] |
| 1 to 10 nM | NC(N)=NC(=O)c1ccc2ncc(Cl)c(-c3ccccc3F)c2c1 [Example 69] |
| 1 to 10 nM | COc1cc(Cl)ccc1-c1ccnc2c(C)cc(C(=O)N=C(N)N)cc12 [Example 77] |
| 10 to 100 nM | Cc1cc(-c2ccccc2F)c2cc(C(=O)N=C(N)N)ccc2n1 [Example 82] |
| 1 to 10 nM | Cc1nc2ccc(C(=O)N=C(N)N)cc2c(-c2ccc(F)cc2F)c1Cl [Example 88] |
